From patent US12319648B2, “Fluorinated phenylacetic acid derivatives in a weed control method” (SYNGENTA CROP PROTECTION AG, priority 2019, dated 2025)

Columns and labels:
Format in all cases: in vivo
[1] = system: Amaranthus retoflexus (AMARE); assay: Post-emergence herbicidal glasshouse test; conditions: post-emergence, 250 g/ha, 13 days after application
Experimental: (§1) Seeds of a variety of test species are shown in standard soil in pots Amaranthus retoflexus (AMARE), Ipomoea hederacea (IPOHE), Solanum nigrum (SOLNI), Lolium perenne (LOLPE). Echinochloa crus-galli (ECHCG), Setaria faberi (SETFA)). After cultivation for one day (pre-emergence) or after 8 days cultivation (post-emergence) under controlled conditions in a glasshouse (at 24/16° C., day/night; 14 hours light; 65% humidity), the plants are sprayed with an aqueous spray solution derived from the formulation of the technical active ingredient in acetone/water (50:50) solution containing 0.5% Tween 20 (polyoxyethylene sorbitan monolaurate, CAS RN 9005-64-5). Compounds are applied at 250 g/ha unless otherwise stated. The test plants are then grown in a glasshouse under controlled conditions in a glasshouse (at 24/16° C., day/night; 14 hours light; 65% humidity) and watered twice daily. After 13 days for pre and post-emergence, the test is evaluated for the percentage damage caused to the plant. The biological activities are shown in the following table on a five-point scale (5=81-100%; 4=61-80%; 3=41-60%; 2=21-40%; 1=0-20%).
(§2) Using the experimental conditions outlined above, a further test is conducted to compare the herbicidal properties of the difluro containing compound (1.014) with a representative compound (C1) referred to in GB901553. The compounds are applied at 1000 g/ha and 500 g/ha. The test is evaluated for the percentage damage caused to the plant (% phytotoxicity).

Solanum nigrum (SOLNI) [2] = assay: Post-emergence herbicidal glasshouse test; conditions: post-emergence, 250 g/ha, 13 days after application
Experimental: as §1, §2

[3] = system: Ipomoea hederacea (IPOHE); assay: Post-emergence herbicidal glasshouse test; conditions: post-emergence, 250 g/ha, 13 days after application
Experimental: as §1, §2

Setaria faberi (SETFA) [4] = assay: Post-emergence herbicidal glasshouse test; conditions: post-emergence, 250 g/ha, 13 days after application
Experimental: as §1, §2

Lolium perenne (LOLPE) [5] = assay: Post-emergence herbicidal glasshouse test; conditions: post-emergence, 250 g/ha, 13 days after application
Experimental: as §1, §2

[6] = system: Echinochloa crus-galli (ECHCG); assay: Post-emergence herbicidal glasshouse test; conditions: post-emergence, 250 g/ha, 13 days after application
Experimental: as §1, §2

[7] = system: Amaranthus retoflexus (AMARE); assay: Pre-emergence herbicidal glasshouse test; conditions: pre-emergence, 250 g/ha, 13 days after application
Experimental: as §1, §2

Solanum nigrum (SOLNI) [8] = assay: Pre-emergence herbicidal glasshouse test; conditions: pre-emergence, 250 g/ha, 13 days after application
Experimental: as §1, §2

[9] = system: Ipomoea hederacea (IPOHE); assay: Pre-emergence herbicidal glasshouse test; conditions: pre-emergence, 250 g/ha, 13 days after application
Experimental: as §1, §2

Setaria faberi (SETFA) [10] = assay: Pre-emergence herbicidal glasshouse test; conditions: pre-emergence, 250 g/ha, 13 days after application
Experimental: as §1, §2

Lolium perenne (LOLPE) [11] = assay: Pre-emergence herbicidal glasshouse test; conditions: pre-emergence, 250 g/ha, 13 days after application
Experimental: as §1, §2

[12] = system: Echinochloa crus-galli (ECHCG); assay: Pre-emergence herbicidal glasshouse test; conditions: pre-emergence, 250 g/ha, 13 days after application
Experimental: as §1, §2

Structure (SMILES)	percentage damage caused to the plant, five-point scale, AMARE [1]	percentage damage caused to the plant, five-point scale, SOLNI (Solanum nigrum (SOLNI) [2])	percentage damage caused to the plant, five-point scale, IPOHE [3]	percentage damage caused to the plant, five-point scale, SETFA (Setaria faberi (SETFA) [4])	percentage damage caused to the plant, five-point scale, LOLPE (Lolium perenne (LOLPE) [5])	percentage damage caused to the plant, five-point scale, ECHCG [6]	percentage damage caused to the plant, five-point scale, AMARE [7]	percentage damage caused to the plant, five-point scale, SOLNI (Solanum nigrum (SOLNI) [8])	percentage damage caused to the plant, five-point scale, IPOHE [9]	percentage damage caused to the plant, five-point scale, SETFA (Setaria faberi (SETFA) [10])	percentage damage caused to the plant, five-point scale, LOLPE (Lolium perenne (LOLPE) [11])	percentage damage caused to the plant, five-point scale, ECHCG [12]
O=C(O)C(F)(F)c1c(Cl)ccc(Cl)c1Cl [Compound 1.001]	5 (5=81-100%)	4 (4=61-80%)	4 (4=61-80%)	3 (3=41-60%)	1 (1=0-20%)	1 (1=0-20%)	5 (5=81-100%)	1 (1=0-20%)	3 (3=41-60%)	1 (1=0-20%)	1 (1=0-20%)	1 (1=0-20%)
COC(=O)C(F)(F)c1c(Cl)ccc(Cl)c1Cl [Compound 1.002]	4 (4=61-80%)	4 (4=61-80%)	2 (2=21-40%)	1 (1=0-20%)	1 (1=0-20%)	1 (1=0-20%)	4 (4=61-80%)	1 (1=0-20%)	1 (1=0-20%)	1 (1=0-20%)	1 (1=0-20%)	1 (1=0-20%)
COC(=O)C(F)(F)c1ccc(Cl)cc1Cl [Compound 1.003]	3 (3=41-60%)	3 (3=41-60%)	3 (3=41-60%)	1 (1=0-20%)	1 (1=0-20%)	1 (1=0-20%)	4 (4=61-80%)	2 (2=21-40%)	3 (3=41-60%)	1 (1=0-20%)	1 (1=0-20%)	1 (1=0-20%)
O=C(O)C(F)(F)c1ccc(Cl)cc1Cl [Compound 1.004]	4 (4=61-80%)	4 (4=61-80%)	4 (4=61-80%)	1 (1=0-20%)	1 (1=0-20%)	1 (1=0-20%)	4 (4=61-80%)	3 (3=41-60%)	4 (4=61-80%)	1 (1=0-20%)	1 (1=0-20%)	1 (1=0-20%)
